# Measurements as given in US5783568A, “Methods for treating cancer and other cell proliferative diseases” (Sugen, Inc., priority 1994, dated 1998).
# “Also recorded” adds a separate entry of the source. Like-named read-outs stand apart in the source and are kept apart here.
# B1: soluble Flt-1: soluble Flt-1, one of the receptors for VEGF (protein, UniProt P17948 27-758, looked up)
# extracellular domain: SKLKDPELSLKGTQHIMQAGQTLHLQCRGEAAHKWSLPEMVSKESERLSITKSACGRNGKQFCSTLTLNTAQANHTGFYSCKYLAVPTSKKKETESAIYIFISDTGRPFVEMYSEIPEIIHMTEGRELVIPCRVTSPNITVTLKKFPLDTLIPDGKRIIWDSRKGFIISNATYKEIGLLTCEATVNGHLYKTNYLTHRQTNTIIDVQISTPRPVKLLRGHTLVLNCTATTPLNTRVQMTWSYPDEKNKRASVRRRIDQSNSHANIFYSVLTIDKMQNKDKGLYTCRVRSGPSFKSVNTSVHIYDKAFITVKHRKQQVLETVAGKRSYRLSMKVKAFPSPEVVWLKDGLPATEKSARYLTRGYSLIIKDVTEEDAGNYTILLSIKQSNVFKNLTATLIVNVKPQIYEKAVSSFPDPALYPLGSRQILTCTAYGIPQPTIKWFWHPCNHNHSEARCDFCSNNEESFILDADSNMGNRIESITQRMAIIEGKNKMASTLVVADSRISGIYICIASNKVGTVGRNISFYITDVPNGFHVNLEKMPTEGEDLKLSCTVNKFLYRDVTWILLRTVNNRTMHYSISKQKMAITKEHSITLNLTIMNVSLQDSGTYACRARNVYTGEEILQKKEITIRDQEAPYLLRNLSDHTVAISSSTTLDCHANGVPEPQITWFKNNHKIQQEPGIILGPGSSTLFIERVTEEDEGVYHCKATNQKGSVESSAYLTVQGTSDKSNLE
# modifications: extracellular domain
# notes: soluble Flt-1, one of the receptors for VEGF
# Experiments:
# heparin binding proteins = conditions: cited from earlier work
# aFGF = molecular target: T1, aFGF (Homo sapiens, UniProt P05230); assay: Isothermal titration calorimetry, binding to aFGF; conditions: ITC
# T1 construct: made in house; host or cells: E. coli
# T1 sequence (P05230 whole entry): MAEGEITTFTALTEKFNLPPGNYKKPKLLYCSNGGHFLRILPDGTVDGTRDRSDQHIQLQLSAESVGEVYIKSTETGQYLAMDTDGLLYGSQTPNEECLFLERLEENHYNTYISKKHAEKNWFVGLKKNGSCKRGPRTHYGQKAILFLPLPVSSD
# FGFR2 (bek) [1] = assay: Tyrosine phosphorylation of FGFR2 in wild-type CHO-K1 cells; format: cell-based, human; conditions: excess of sucrose octasulfate (0.5, 50 or 500 μM) with aFGF and heparin
# Experimental: (§1) Cells were lysed and the receptor was immunoprecipitated with anti-FGFR2 antibodies. Samples were then analyzed by SDS-PAGE, transferred to nitrocellulose membranes, and tyrosine-phosphorylated proteins were detected by immunoblotting with anti-phosphotyrosine antibodies.
# (§2) Wild-type CHO cells (CHO-K1), as well as heparin sulfate-deficient mutant cells (CHO-pgsD-677) which were kindly provided by Prof. J. Esko (Esko, 1991), were cultured in F-12 medium containing 7.5% FBS, 1% Ampicillin/Streptomycin and 1% glutamine. Both CHO cell lines were co-transfected with the wild-type human FGFR2 (bek) DNA in the expression vector pMJ30 (Dionne et al., 1990) (40 μg/10 cm dish) and the pSVneo resistant gene (0.5 mg/10 cm dish), using the calcium phosphate method (Chen and Okayama, 1987). Geneticin (1 mg/ml) resistant clones were screened for expression of the receptor by immunoprecipitation and immunoblotting analysis using anti-FGFR2 antibodies.
# (§3) Wild-type and mutant CHO cells were starved overnight in F-12 medium containing 0.5% FBS, and stimulated with either 0.1 nM aFGF, 50 nM heparin, or both, for 5 min at 37° C. Cells were lysed, immunoprecipitated with anti-FGFR2 antibodies and analyzed by immunoblotting with anti-phosphotyrosine (anti-PTyr) antibodies.
# bFGF = conditions: cited from earlier work
# FGFR2 (bek) [2] = assay: Tyrosine phosphorylation of FGFR2 in mutant (HSPG-deficient) CHO-pgsD-677 cells; format: cell-based, human
# Experimental: as §1, §2, §3
# K-FGF = conditions: cited from earlier work
# tumor cells = conditions: Wellstein et al, 1991; cited from earlier work
# EGF = conditions: cited from earlier work
# gastric mucosa = conditions: cited from earlier work
# VEGF = conditions: cell culture; Kendall & Thomas, 1993; cited from earlier work
molecule,measurement,setting,value
Cc1ccc(C(=O)Nc2ccc(S(=O)(=O)O)c3cc(S(=O)(=O)O)cc(S(=O)(=O)O)c23)cc1NC(=O)c1cccc(NC(=O)Nc2cccc(C(=O)Nc3cc(C(=O)Nc4ccc(S(=O)(=O)O)c5cc(S(=O)(=O)O)cc(S(=O)(=O)O)c45)ccc3C)c2)c1 [Suramin],effect on heparin binding proteins,heparin binding proteins,inducing microagglutination of the growth factor; also recorded: inhibit a variety of heparin binding proteins
O=S(=O)(O)OC[C@H]1O[C@@](COS(=O)(=O)O)(O[C@H]2O[C@H](COS(=O)(=O)O)[C@@H](OS(=O)(=O)O)[C@H](OS(=O)(=O)O)[C@H]2OS(=O)(=O)O)[C@@H](OS(=O)(=O)O)[C@@H]1OS(=O)(=O)O [sucrose octasulfate],AH of aFGF binding to heparin / heparin analog,aFGF; heparins: means ± SD of two experiments,-5.8 ± 1.2 kcal mol^-1
same,Kd,"aFGF; single class of binding sites, heparins: means ± SD of two experiments, read-out: KD of aFGF binding to heparin / heparin analog",3.4 ± 1.34 µM
same,Kd,aFGF; KD of aFGF binding to sucrose octasulfate,3.4 µM
same,"effect on aFGF/heparin-induced receptor activation, CHO cells that express HSPG",FGFR2 (bek) [1],inhibitory
same,protection of bFGF from acid degradation,bFGF,protect the biologic activity of bFGF against acid degradation
same,"effect on aFGF/heparin-induced receptor activation, mutant CHO cells","FGFR2 (bek) [2]; excess of sucrose octasulfate (0.5, 50 or 500 μM) with 0.1 nM aFGF and 50 nM heparin",inhibitory; also recorded: can be inhibited
same,aFGF/heparin-induced dimerization and activation of FGFR,FGFR2 (bek) [2]; statement of Section 5.1 referring to Section 7.2.8,effectively inhibits aFGF/heparin-induced dimerization and activation of FGFR
same,"activation of FGFR by aFGF with sucrose octasulfate in place of heparin, mutant CHO cells","FGFR2 (bek) [2]; sucrose octasulfate plus aFGF, no heparin",does not enable aFGF to activate FGFR in the mutant (HSPG-deficient) CHO cells
Pentosan polysulfate,K-FGF-induced growth,"K-FGF; Wellstein et al., 1991",inhibited the K-FGF- induced growth
same,FGF-induced angiogenesis and tumor growth,K-FGF,inhibited the FGF-induced angiogenesis and tumor growth
same,growth of tumor cells in vitro,tumor cells,selective inhibition of growth of tumor cells in vitro
sucrose octakis (hydrogen sulfate) aluminum complex [sucralfate],EGF binding,EGF,binds EGF in a pH-dependent manner
same,ulcer healing / wound healing,gastric mucosa; in vivo,accelerates ulcer healing without reducing gastric acid; also recorded: elevates the level of available endogenous bFGF in the ulcer bed and stimulates angiogenesis and wound healing
same,epithelial proliferation,gastric mucosa; through stimulation of gastric mucosal EGF and PDGF receptors,enhances epithelial proliferation
same,protection of bFGF from acid degradation,bFGF,protects bFGF from degradation by acid
same,affinity to bFGF,bFGF; compared with heparin,higher affinity binding to bFGF than heparin
B1,VEGF activity,VEGF,can bind and inhibit the activity of VEGF in cell culture
